The values below come from patent publication US12716050B2, “Two methods for preparing universal microbial medium by eutectic system-based cellulose liquefaction” (Xinjiang University, priority 2021, dated 2026).

A short description of data set [1]: Screening of ionic liquids for dissolving microcrystalline cellulose. The data set is classed as physicochemical.
The next data set deals with Escherichia coli. The conditions noted are these: LB solid medium, 48 h. The text has this: Therefore, a purpose of this example is to screen a concentration range of the ionic liquid contained in the medium.
Setting [2] is: No. 8: 10 g IL, 1 g microcrystalline cellulose, 90° C., co-heated.
[3] abbreviates: No. 11: 5 g IL, 3 g microcrystalline cellulose, 90° C., co-heated.
[4] abbreviates: No. 3: 5 g IL, 3 g microcrystalline cellulose, 90° C., co-heated.

Like-named read-outs stand apart in the source and are kept apart here.

As to `C=CCn1cc[n+](C)c1.[Cl-]` [1-allyl-3-methylimidazolium chloride], the “Conclusion (dissolution effect of microcrystalline cellulose)” value in data set [1] (setting [2]) is on record as “desirable”; in data set [1] (No. 9: 5 g IL, 1 g microcrystalline cellulose, IL heated to 100° C.), “common”; in data set [1] (No. 10: 5 g IL, 2 g microcrystalline cellulose, 100° C., soaked in IL for 20 h, co-heated), “common”; in data set [1] (setting [3]) it was “has a poor”. Further, the Dissolution time in data set [1] (setting [2]) amounted to 40 min; in data set [1] (No. 9: 5 g IL, 1 g microcrystalline cellulose, IL heated to 100° C., cellulose added), 20 min; in data set [1] (No. 10: 5 g IL, 2 g microcrystalline cellulose, 100° C., soaked in IL for 20 h, co-heated in water bath) it was 10 min; in data set [1] (setting [3]), 240 min.

Take `CCCCn1cc[n+](C)c1.[Cl-]` [1-butyl-3-methylimidazolium chloride]: the “Conclusion (dissolution effect of microcrystalline cellulose)” value in data set [1] (No. 1: 10 g IL, 1 g microcrystalline cellulose, 90° C., co-heated) is given as “desirable”; in data set [1] (No. 2: 5 g IL, 3 g microcrystalline cellulose, 110° C., IL preheated to liquid state), “desirable”; in data set [1] (setting [4]) it was “common”. Further, the Dissolution time amounted to 40 min in data set [1] (No. 1: 10 g IL, 1 g microcrystalline cellulose, 90° C., co-heated, stirred 20 sec every 5 min); 1 min in data set [1] (No. 2: 5 g IL, 3 g microcrystalline cellulose, 110° C., IL preheated to liquid state, mixed by stirring); 240 min in data set [1] (setting [4]). Also, the “Effect in pretreatment of cellulose” value in data set [1] (overall conclusion of Example 1) is “could well process the cellulose”. In addition, the “Conclusion (dissolution effect)” value is “Poor” (Treatment 1: 10 g IL, 1 g microcrystalline cellulose, co-heated to 90° C., repeated); “Common” (Treatment 2: 10 g IL, 1 g cellulose, IL heated to 90° C., heating to 90° C. repeated); “Common” (Treatment 3: 10 g IL, 1 g cellulose, IL heated to 90° C., heating to 100° C. repeated); “Common” (Treatment 4: 10 g IL, 1 g cellulose, IL heated to 90° C., heating to 110° C. repeated); “Common” (Treatment 5: 10 g IL, 1 g cellulose, IL heated to 90° C., heating to 120° C. repeated); “Desirable” (Treatment 6: 10 g IL, 1 g cellulose, 90° C., 120° C., heating to 180° C. repeated). The “Conclusion (dissolution effect)” value is, setting by setting: (Treatment 7: 8 g IL, 1 g cellulose, 90° C., 120° C., heating to 180° C. repeated) “Desirable”; (Treatment 8: 5 g IL, 1 g cellulose, 90° C., 180° C., heating to 180° C. repeated) “Desirable”; (Treatment 9: 5 g IL, 1.5 g cellulose, 90° C., 120° C., heating to 180° C. repeated) “Desirable”; (Treatment 10: 5 g IL, 2 g cellulose, 90° C., 120° C., heating to 180° C. repeated) “Desirable”; (Treatment 11: 5 g IL, 2.5 g cellulose, 90° C., 120° C., heating to 180° C. repeated) “Desirable”. In the data set with Escherichia coli, the “Ionic liquid concentration at which the growth of Escherichia coli is inhibited” value is given as “not less than 3%”. The “Growth state of strains” value in the data set on Escherichia coli (ionic solution concentration 1%) is “Normal”; with Escherichia coli (ionic solution concentration 3%), “Slightly inhibited”; in the data set on Escherichia coli (ionic solution concentration 4%), “Inhibited growth”; with Escherichia coli (ionic solution concentration 5%), “Inhibited growth”; with Escherichia coli (ionic solution concentration 6%) it was “No growth”; with Escherichia coli (ionic solution concentration 7%) it was “No growth”.
